Tested on: Normal human fibroblasts
Test: Peroxidation of lipids test: protection against UVA-induced lipid peroxidation (8-iso-Prostanes release)
Assay type: cell-based
Conditions: pure ellagic acid at 3 μM for 24 h, then UVA exposure, assayed 2 h30 after exposure
Description: An evaluation of the protection potential against UVA-induced lipid peroxidation of Punica granatum extract according to the invention obtained according to Example 1 was made and compared to the protection against UVA-induced lipid peroxidation of pure ellagic acid. Normal human fibroblasts are treated either with the Punica granatum extract according to the invention at 0.001% or with pure ellagic acid at 3 μM for 24 h and then exposed to a UVA dose inducing no more than 20% cell death. A control was performed consisting in normal human fibroblasts exposed to a UVA dose inducing no more than 20% cell death. 8-iso-Prostanes release is assayed 2 h30 after the exposure.

O=c1oc2c(O)c(O)cc3c(=O)oc4c(O)c(O)cc1c4c23 [Ellagic acid, ellagic acid]
protection against lipid peroxidation (UV-exposed control = 0%): 35%
release of 8-iso-Prostanes (UV-exposed control = 100%): 65%

Reference: patent publication US12527736B2, “Punica granatum extract and its cosmetic uses” (L'OREAL, priority 2019, dated 2026)
